Data taken from patent US20090131309A1, “ICA512 COUPLES INSULIN SECRETION AND GENE EXPRESSION IN BETA-CELLS” (Technische Universität Dresden Medizinizche Fakultät Carl …, priority 2004, published 2009).

Assays:
[1] = system: INS-1 cells; test: Nuclear levels of ICA512-CCF-GFP in INS-1 cells (nuclear extracts, confocal imaging); format: cell-based, rat; conditions: ICA512-GFP INS-1 cells; 60 μM calpeptin
Procedure: Cell extracts and western blotting. Wild type and transfected INS-1 cells and rat pancreatic islets (350-450) were pre-incubated for 60 minutes in resting buffer containing 0 mM glucose and 5 mM KCl and then incubated for various times in fresh resting or stimulating buffer including 25 mM glucose and 55 mM KCl, as previously described (7). The protease inhibitors calpeptin, MG-132, L-685,458 (Calbiochem, La Jolla, Calif.) were added in the last 15 minutes of the pre-incubation, and then for the entire following period before cells were harvested. Next, the cells were washed with ice cold PBS, and extracted in lysis buffer (10 mM Tris-HCl at pH 8.0, 140 mM NaCl, 1% Triton X-100, 1 mM EDTA, 1 mM PMSF, and 1% protease inhibitor cocktail (Sigma, St. Louis, Mo.) at 4° C. Cytosolic and nuclear extracts were prepared using the NE-PER Nuclear and Cytoplasmic Extraction Reagents (Pierce, Rockford, Ill.) in accordance with the manufacturer's instructions. Protein concentration was measured using the Bio-Rad Protein Assay Reagent (Bio-Rad, Hercules, Calif.). Equivalent amount of protein was separated by 8-10% SDS-PAGE, except for nuclear extracts, in which case half of the protein were loaded compared to the corresponding cytosolic extracts. […] Quantitation of protein signals was performed with the Image Gauge v3.45 software (Fuji). […]

[2] = biological target: T1, μ-calpain (Homo sapiens, UniProt P07384); format: biochemical; conditions: bacterially expressed ICA512 (601-979), 50 μM Ca2+, 30 μM inhibitor
T1 sequence (P07384 1-714): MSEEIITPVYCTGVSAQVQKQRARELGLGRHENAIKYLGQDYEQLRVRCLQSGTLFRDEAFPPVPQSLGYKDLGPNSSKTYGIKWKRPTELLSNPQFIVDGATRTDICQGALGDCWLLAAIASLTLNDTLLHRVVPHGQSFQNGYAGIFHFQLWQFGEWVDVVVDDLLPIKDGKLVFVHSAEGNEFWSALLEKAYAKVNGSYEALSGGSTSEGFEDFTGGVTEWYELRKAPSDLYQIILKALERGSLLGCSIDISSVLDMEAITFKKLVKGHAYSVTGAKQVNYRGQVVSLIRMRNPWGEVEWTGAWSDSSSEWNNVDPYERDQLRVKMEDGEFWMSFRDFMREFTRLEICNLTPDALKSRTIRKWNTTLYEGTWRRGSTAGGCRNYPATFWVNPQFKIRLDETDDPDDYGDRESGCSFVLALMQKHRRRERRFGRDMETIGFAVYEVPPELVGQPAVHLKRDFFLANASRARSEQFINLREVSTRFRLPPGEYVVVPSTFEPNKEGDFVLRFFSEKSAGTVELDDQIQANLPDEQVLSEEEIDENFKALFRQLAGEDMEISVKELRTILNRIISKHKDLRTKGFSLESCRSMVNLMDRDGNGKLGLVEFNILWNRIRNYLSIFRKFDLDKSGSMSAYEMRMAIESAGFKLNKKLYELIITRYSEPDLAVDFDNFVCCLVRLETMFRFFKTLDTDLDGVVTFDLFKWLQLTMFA
T1 sequence (P04632 1-268 partner): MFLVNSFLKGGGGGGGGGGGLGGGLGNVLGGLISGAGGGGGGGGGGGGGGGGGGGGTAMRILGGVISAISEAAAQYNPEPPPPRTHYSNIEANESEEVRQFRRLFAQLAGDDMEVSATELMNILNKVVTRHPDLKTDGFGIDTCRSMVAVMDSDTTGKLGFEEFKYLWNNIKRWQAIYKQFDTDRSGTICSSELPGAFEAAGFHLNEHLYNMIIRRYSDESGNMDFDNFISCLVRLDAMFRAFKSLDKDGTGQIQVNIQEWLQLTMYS
Procedure: In-vitro μ-calpain cleavage. 3 μg bacterially expressed His-ICA512 cytoplasmic domain (residues 601-979) (Ort et al., 2001) were incubated in 20 μl buffer (20 mM Tris-HCl pH 7.5, 50 μM CaCl2, 1 mM L-cysteine) at room temperature with or without 150 ng μ-calpain (Calbiochem) and 30 μM calpeptin or MG-132 for 1, 5, 15 or 45 minutes. The reactions were stopped by addition of an equal volume of 2×SDS sample buffer. Following SDS-PAGE, proteins were stained with Coomassie Blue (Bio-Rad).

With `CCCC[C@@H](C=O)NC(=O)[C@H](CC(C)C)NC(=O)OCc1ccccc1` [calpeptin] as the compound, how does the “enrichment of 55 kD ICA512-CCF-GFP in nuclear fractions of stimulated cells” value [1] read?
The value was “in a calpeptin-sensitive manner”.

And the “Cleavage by μ-calpain” value [2]?
Its value is “inhibited”.
